How the values were obtained:
[1] = test system: MK-801 induced locomotor hyperactivity; test: MK-801 induced locomotor hyperactivity in mice; assay type: in vivo; details: for Distance traveled during habituation with vehicle or compound, Mean: 1 hr. habituation before MK-801; for Distance traveled after administration of vehicle or 0.1 mg/Kg MK-801, Mean: 2 hrs after MK-801 0.1 mg/kg SC
Source text: MK-801 induced locomotor hyperactivity in mice: The rodent MK-801 induced locomotor hyperactivity assay has been used as a predictor of anti-psychotic therapeutic potential (Corbett, R., Camacho, F., Woods, A. T., Kerman, L. L., Fishkin, R. J., Brooks, K., and Dunn, R. W. Antipsychotic agents antagonize non-competitive N-methyl-D-aspartate antagonist-induced behaviors. Psychopharmacology (1995) vol. 120: 67-74). Compounds of the invention may be evaluated for their ability to reduce locomotor hyperactivity elicited by the NMDA receptor antagonist MK-801. Studies are conducted in the dark. Locomotor activity is measured in clear Perspex™ boxes (40×40×30 cm) based on infrared fields (100×100 cm). Sixteen boxes are used, four on each field, each monitored using overhead infrared cameras (Sanyo VCV-3412P, TrackSys Ltd, UK). The cameras feed into a Quad Videoswitch (VQ403-C), TrackSys Ltd, UK), which in turn feeds a PC running the image analysis application Ethovision v8 (Noidus, NL).
All treatment tzroups have initial sample sizes of n=8. Mice are assigned to groups using a pseudorandomised block method where treatments are balanced across the time of day of testing and the test room used. On the test day, animals are transported to the testing room ante-chamber in their home cages and dosed with the test compound (0.3-3 mg/kg po) or vehicle before being placed individually into the test boxes for 1 hr., during which time locomotor activity is measured. Following this habituation period, animals are dosed with MK-801 (0.1 mg/kg SC) or vehicle as appropriate and then replaced into the test boxes where locomotor activity is measured for a further 2 hrs. The measurement of interest for LMA studies is the distance moved (cm). Unless stated otherwise, points on all graphs are plotted as the mean±standard errors.
Data are imported into STATISTICA (v9) for statistical analyses. A general linear model approach is used for all multivariate ANOVAs calculated for the data. Following ANOVA, planned comparisons are used to investigate significant differences from the control animals. Statistical significances are denoted by the following symbols: *p<0.05, **p<0.01. Mean values calculated in Statistica are imported into SigmaPlot (v11) to graph the data.

[2] = target: recombinant human 5-HT2A receptor (Homo sapiens, UniProt P28223); test: 5-HT2A inverse agonism, [35S]GTPγS binding to AV12 membranes (human receptor); assay type: biochemical; design: expressed in transfected cells; host or cells: AV12 cells, membranes
Experimental: The inverse agonist activity of compounds of the present invention may be determined by literature recognized assay methods measuring [^35S]GTPγS binding to membranes transfected with 5-HT2A receptors in an in vitro activity assay essentially as described below.
Membranes are prepared from frozen pellets of whole AV12 cells expressing the human or rat 5-HT2A receptor. Cells are thawed on ice and homogenized in homogenization buffer (50 mM Tris-HCl, 0.5 mM EDTA, 1 tablet/100 mL of complete EDTA free protease inhibitor tablets (Roche Cat. No. 05 056 489 001), pH=7.4) with 20 strokes of a teflon-glass homogenizer attached to a motorized overhead stirrer. Centrifuge membranes at 1000 rpm (aprox. 150×g) for 15 min. at 4° C. […] The final supernatant is discarded and the pellet is resuspended in homogenization buffer and its protein content is determined by the method of Bradford using BSA as the standard. […]
Test compound is prepared from a 10 mM DMSO stock solution by serial dilution to provide a 10 point concentration response curve, with a final 1% DMSO concentration when added to the assay mixture. […] This mixture is incubated for 3 hr. with constant shaking at room temperature, centrifuged at 300 rpm for 1 min. with no brake and incubated for 3 more hr. before reading in a microplate scintillation counter.

[3] = test system: DOI induced headshake response; test: Inhibition of DOI induced headshake activity; assay type: in vivo, male C57BL/6J mice; details: mice, PO, 60 min. pre-treatment, DOI 3 mg/kg subcutaneously
Experimental: (see for example Bartoszyk G D, van Amsterdam C, Böttcher H, Seyfried C A. EMD 281014, a new selective serotonin 5-HT2A receptor antagonist. Eur J Pharmacol. 2003 473: 229-230.) This assay has also be used as an indicator of anti-psychotic therapeutic potential. Briefly, male C57BL/6J mice (20-25 g, Charles River) are housed in standard housing conditions (32 mice in a large IVC cage, 07.00 to 19.00 light phase, constant temperature (19-23° C.) and humidity (50%+/−10), ad lib food and water). Mice received either vehicle (0.25% Methyl cellulose), DOI (3 mg/kg in saline) or test compound at doses up to 10 mg/kg PO plus DOI (3 mg/kg in saline). Test compounds are individually evaluated at 4 doses with n=4 for each dose, together with vehicle and DOI+vehicle (n=8). After a test compound pre-treatment time of 60 min. the mice receive either vehicle (saline) or 3 mg/kg DOI dosed subcutaneously, and are then placed into clear perspex observation chambers. […] The data is analyzed using an ANOVA and post-hoc Dunnet's Test. The compounds of Example 1 and Example 2 are tested essentially as described and are found to inhibit the DOI induced headshake response with an approximate EC50 of 0.5 mg/kg for both compounds.

Chain of recombinant human 5-HT2A receptor (P28223 whole entry): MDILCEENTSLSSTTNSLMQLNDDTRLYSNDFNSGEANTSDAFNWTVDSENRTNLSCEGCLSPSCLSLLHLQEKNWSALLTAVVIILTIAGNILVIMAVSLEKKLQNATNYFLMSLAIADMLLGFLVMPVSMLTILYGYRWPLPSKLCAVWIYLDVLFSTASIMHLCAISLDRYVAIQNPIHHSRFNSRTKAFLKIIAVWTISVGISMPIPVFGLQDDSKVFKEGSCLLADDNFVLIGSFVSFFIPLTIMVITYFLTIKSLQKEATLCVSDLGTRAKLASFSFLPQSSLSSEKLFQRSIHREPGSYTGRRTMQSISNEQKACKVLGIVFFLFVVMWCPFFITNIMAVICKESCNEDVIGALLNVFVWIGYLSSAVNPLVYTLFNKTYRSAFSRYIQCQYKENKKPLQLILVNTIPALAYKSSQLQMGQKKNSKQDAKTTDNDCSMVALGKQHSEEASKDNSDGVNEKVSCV

Cc1ccc2c(c1)Oc1sc(SC(C)C)cc1C(N1CCN(CC(C)(C)C(=O)O)CC1)=N2 [Example 1, 3-[4-(2-isopropylsulfanyl-8-methyl-thieno[2,3-b][1,5]benzoxazepin-4-yl)piperazin-1-yl]-2,2-dimethyl-propanoic acid]
Distance traveled during habituation with vehicle or compound, Mean ([1]; 0.3 mg/Kg po): 9336.73 cm
Distance traveled after administration of vehicle or 0.1 mg/Kg MK-801, Mean ([1]; 0.3 mg/Kg po): 8492.08 cm
Distance traveled during habituation with vehicle or compound, Mean ([1]; 1.0 mg/Kg po): 8939.48 cm
Distance traveled after administration of vehicle or 0.1 mg/Kg MK-801, Mean ([1]; 1.0 mg/Kg po): 7258.87 cm
Distance traveled during habituation with vehicle or compound, Mean ([1]; 3.0 mg/Kg po): 7682.77 cm
Distance traveled after administration of vehicle or 0.1 mg/Kg MK-801, Mean ([1]; 3.0 mg/Kg po): 7085.68 cm
effect on MK-801 induced locomotor hyperactivity (in words) ([1]; 0.3-3 mg/kg po): significantly block
5-HT2A inverse agonism (in words) [2]: inverse agonist of the 5-HT2A receptor
EC50 ([2]; recombinant human receptor, n=2, read-out: EC50, inhibition of intrinsic activity of the 5-HT2A receptor): 85 nM
approximate EC50, inhibition of DOI induced headshake response [3]: ~0.5 mg/kg

— US20150322083A1, “(THIENO[2,3-b][1,5]BENZOXAZEPIN-4-YL)PIPERAZIN-1-YL COMPOUNDS AS SELECTIVE 5-HT2A INVERSE AGONISTS” (Eli Lilly and Company, priority 2014, published 2015)
